Source: patent US20060073496A1, “Methods of identifying patients at risk of developing encephalitis following immunotherapy for Alzheimer's disease” (priority 2004, published 2006)
Several values for one entry are separate records, joined by “and”; a condition that tells them apart may be missing. Equal values may be shown once. Entries after “also recorded” stand apart in the source; their conditions may differ.

Assays:
PDAPP transgenic mouse = PDAPP transgenic mouse efficacy studies (titer needed to lessen neuropathological progression); type: in vivo
Source text: At present, the anti-AN1792 titer necessary to achieve a beneficial therapeutic effect in human AD is unknown. Whereas the PDAPP (platelet-derived growth factor-driven amyloid precursor protein) transgenic mouse develops several AD-like neuropathologies, the progression of pathology in this model may very well take a more aggressive course than in human AD, as the changes occur in months and the expression levels APP/Aβ are several fold higher than in nontransgenic species.

[1] = Phase IIa placebo-controlled trial of AN1792 with QS-21 adjuvant: meningoencephalitis and follow-up; type: in vivo, human; conditions: for Meningoencephalitis patients: number of samples in pharmacogenomic study
Source text: The U.K. trial enrolled about 80 patients and the U.S. trial enrolled about 24 patients with mild to moderate AD for the Phase I trials.
Antibody responders were compared to placebo controls. […] Whole-trial analysis remains ongoing (Gilman, supra).
A total of 372 patients, 172 from the U.S. and 200 from the E.U., were enrolled in the clinical trial. […] Consent was obtained after approval by local institutional review boards.

PBMCs = experiment: Gene expression frequency (Affymetrix U133A) in PBMCs cultured overnight with AN1792 and immune adjuvant cocktail; association with encephalitis, IgG, IgM response, ApoE4 by ANOVA and GeneCluster; ratio to control culture; type: cell-based, human; conditions: 13 genes of Table 17, PBMCs cultured overnight, AN1792 10 μg/ml
Source text: Consent to the pharmacogenomic study was optional and obtained after approval by local institutional review boards in the U.S. (E.U. patients were not included in the pharmacogenomic study). Blood was collected from patients in the U.S. at the screening visit and was shipped overnight at room temperature to the Pharmacogenomic Laboratory in Andover, Mass. For each sample, the peripheral blood mononuclear cell (PBMC) fraction was purified by CPT fractionation, as described below, and 2×10^6 of these cells (the baseline sample, i.e., the first daughter sample for baseline measurements) were snap frozen; these represent cells that were not subject to in vitro culture (see. Example 1.1.3.1). The remaining cells were divided into four equal aliquots and cultured in vitro overnight in conditions described below. Cells were then harvested and snap frozen. […] The hypothesis behind this reasoning was that immunotherapeutic responsiveness may reflect a state of “preexisting readiness” to respond to AN1792, and this state may be reflected in the gene expression profile of PBMCs prior to immunotherapy. Accordingly, both AN1792-stimulated and control cultures were set up for each sample. Total RNA was purified from each sample, and RNA expression levels of each of 22,000 sequences were assayed, as described below. […]

[2] = Phase I human trials of AN1792 (safety, tolerability, antibody responsiveness); type: in vivo; conditions: Phase I study
Source text: The U.K. trial enrolled about 80 patients and the U.S. trial enrolled about 24 patients with mild to moderate AD for the Phase I trials. […] Four of the participants developed signs of meningoencephalitis at an early phase of the clinical trial, and the trial was suspended. […] At the time the treatments were discontinued, the maximum number of immunization received was three (by 24 patients), with the majority of patients receiving two immunizations (274 patients) and two patients receiving one immunization. Ultimately, meningoencephalitis was reported in 18 of 300 immunized patients (Orgogozo (2003) supra).
Predictors of response were sought because the incidence of antibody responsiveness in the Phase I study was relatively low (48%), an incidence that would have more than doubled the number of patients required in a Phase II evaluation of efficacy (as measured by cognitive function) associated with anti-AN1792 antibody response. […] Consequently, blood samples were obtained from 123 treated U.S. patients (five of which developed meningoencephalitis) and 30 patients in the placebo group. Simultaneous analysis of the expression levels of approximately 22,000 sequences in each preimmune blood sample obtained from all consenting subjects was performed using the Affymetrix U133A GeneChip®. […]

AN1792 = experiment: Postimmunization maximum anti-AN1792 IgG and IgM titer / response group of treated patients; type: in vivo, human
Source text: Relevant clinical data received from StatProbe, Inc. (Ann Arbor, Mich.) (pertaining to treatment group, maximum IgG titer for all visits, maximum IgM titer for all visits, ApoE4 type, and encephalitis status), along with demographic data and treatment group, were merged with the gene expression data by donor identification number (the randomization number that was assigned to each patient in the study).
The pharmacogenomic supplemental statistical analysis plan of this Example 1 defines IgG responders as having a maximum titer≧2200 at any time point. The maximum titer of partial IgG responders was >200<2200, and of nonresponders was ≦200. Patients with an IgM titer>100 at any time point are defined as IgM responders.
(Data from patients with maximum titers between 200 and 2200 were not used in the identification of statistically significant associations, but were analyzed once the statistical programs had identified genes of interest.)
Relevant clinical data pertaining to treatment group, maximum IgG titer for all visits, maximum IgM titer for all visits, encephalitis status, and demographic data were received from StatProbe, Inc. (Ann Arbor, Mich.). The clinical data were merged with the gene expression data by donor identification number.
Subjects were assigned to response groups based on postimmunization maximum titer during follow-up. For both IgM and IgG the response groups were: 1) nonresponders, (titer<200); 2) partial responders (200≦titer<2,200); and 3) responders (titer≧2200).

[3] = cited from earlier work
[4] = cited from earlier work; remark: listed apart in the source
[5] = test system: transgenic mouse models of cognitive impairment and amyloid plaque-associated CNS pathology; conditions: cited from earlier work
[6] = rabbit, single IM injection, tritium-labeled QS-21; cited from earlier work
[7] = test system: B and T cell effector function; conditions: QS-21 adjuvanted immunotherapeutics in mice, rabbits and monkeys; cited from earlier work
[8] = cited from earlier work; remark: listed apart in the source
[9] = individual AN1792-treated patients with r^2 outlier samples (33, 22, 316, 765)
[10] = individual treated patients with post-CPT neutrophils >20%, one line per patient (17, 23, 36, 44, 271, 756), listed as Immunotherapy
[11] = number of samples in pharmacogenomic study, Female, of 57 treated
[12] = number of samples in pharmacogenomic study, Male, of 66 treated
[13] = number of samples in pharmacogenomic study, Total, of 123 treated
[14] = immunization with AN1792, transgenic mice

Substance: AN1792: a peptide immunogen consisting of Aβ1-42, the section of amyloid recognized as a major component of AD-related plaques
- lowest titers that resulted in lessening of neuropathological progression (PDAPP transgenic mouse): 1-2,000
- number of patients who developed meningoencephalitis ([1]; E.U. patients): 12
- number of patients who developed meningoencephalitis ([1]; U.S. patients): 6
- Meningoencephalitis patients ([1]; Female): 5
- Meningoencephalitis patients ([1]; Total): 5
- effect of AN1792 stimulation on gene expression frequency (AN1792-stimulated versus control culture) (PBMCs): decrease in gene expression frequency
- incidence of antibody responsiveness [2]: 48%
- IgG response group (AN1792; [9]): Nonresponder (of nonresponders was ≦200); also recorded: IgG responder (IgG responders as having a maximum titer≧2200 at any time point)
- IgM response group (AN1792; [9]): IgM responder (maximum IgM titer>100 (responders)); also recorded: Nonresponder (maximum IgM titer<100 (nonresponders))
- Maximum IgG Titer (AN1792; [10]): 50 (3×) and 4111 and 126 and 172
- Maximum IgM Titer (AN1792; [10]): 13275 and 957 and 28554
- Treated IgG nonresponders (AN1792; [11]): 28
- Treated IgG partial responders (AN1792; [11]): 16
- Treated IgG responders (AN1792; [11]): 13
- Treated IgM nonresponders (AN1792; [11]): 16
- Treated IgM partial responders (AN1792; [11]): 21
- Treated IgG nonresponders (AN1792; [12]): 42
- Treated IgG partial responders (AN1792; [12]): 12
- Treated IgG responders (AN1792; [12]): 12
- Treated IgM nonresponders (AN1792; [12]): 28
- Treated IgM partial responders (AN1792; [12]): 18
- Treated IgG nonresponders (AN1792; [13]): 70
- Treated IgG partial responders (AN1792; [13]): 28
- Treated IgM nonresponders (AN1792; [13]): 44
- Treated IgM partial responders (AN1792; [13]): 39
- Treated IgM responders (AN1792; [13]): 40
- incidence of responsiveness (IgG titer>200), patients of treated patients (AN1792; treated U.S. patients of the pharmacogenomic study, Example 2): 53 of 123
- development of amyloid antibodies ([3]; Phase I trials, mild to moderate AD): a portion of the participants developed amyloid antibodies
- tolerability in human recipients ([3]; in vivo): well tolerated
- CSF tau levels and battery of neuropsychological tests ([4]; antibody responders compared to placebo controls, follow-up): gave results favoring patients with a positive IgG titer
- meningoencephalitis reported, patients of immunized patients ([4]; in vivo): 18 of 300
- β-amyloid plaques in brain at autopsy ([4]; one participant who died of causes unrelated to treatment): significant areas of the brain lacked the β-amyloid plaques
- cognitive function [5, 14]: improved cognitive function
- development of AD-like amyloid plaques, neuritic dystrophy, and gliosis [5, 14]: inhibited the development of AD-like amyloid plaques, neuritic dystrophy, and gliosis
- performance in memory tests ([5]; mice treated with AN1792 versus placebo): improved performance in memory tests

Substance: QS-21
- distribution [6]: highly concentrated in the lymph nodes draining the injection area
- excretion [6]: Excretion occurs primarily through the kidneys
- effect on immune effector function [7]: improvement in B and T cell effector function
- white blood cell counts and creatinine kinase ([8]; rabbit toxicity studies): Slight alterations in white blood cell counts (leukocytosis and leukopenia) and creatinine kinase
- organ toxicity ([8]; rabbit, single or multiple injections, QS-21 alone or combined with antigens): no significant organ toxicity
